Laboratory results from patent US4399139A, “5,6-Dihydro-11-alkylene-morphanthridin-6-ones, their pharmaceutical compositions and method of use” (BASF Aktiengesellschaft, priority 1981, dated 1983).

Key:
pupil diameter = test: Anti-cholinergic side-effect: mydriasis (pupil diameter) in the rat; type: in vivo, Sprague-Dawley rats; details: administered subcutaneously, 1 hour, dose which increases the pupil diameter by 2 mm
Procedure: (§1) To determine anti-cholinergic side-effects (mydriasis, inhibition of salivation), groups of from 5 to 10 female Sprague-Dawley rats (160-200 g) are given the test substance subcutaneously. After 1 hour, the pupil diameter is measured. The animals are then given 0.6 mg/kg of carbachol intraperitoneally. After 5 minutes, the saliva secreted as a result of stimulation by carbachol is blotted up with 4 cm wide strips of universal indicator paper (from Merck). The surface area of the paper colored blue by the alkaline saliva serves as a measure of the salivary secretion. The test substance is taken to inhibit salivary secretion if the blue area of the paper is more than 50% smaller than in the case of the controls. Evaluation of the linear relationships between the logarithms of the dose and the frequency of inhibition of salivation is carried out alternatively by Probit analysis. The ED 50 is taken to be the dose at which the relative frequency of inhibition of salivation is 50%.
(§2) If there is a mydriatic effect, there is a linear regression between the logarithm of the dose and the increase in pupil diameter in mm, from which the ED 2 mm, ie. the dose which increases the pupil diameter by 2 mm, is calculated.

[1] = Anti-cholinergic side-effect: inhibition of carbachol-stimulated salivation in the rat; design: species or system Sprague-Dawley rats; details: in vivo, sc; for ED50 at 1 h: administered subcutaneously, carbachol 0.6 mg/kg intraperitoneally after 1 hour, read-out: Salivation-inhibiting action, ED 50; for selectivity ratio: subcutaneously, ratio of salivation-inhibiting to secretion-inhibiting dose, read-out: Salivation-inhibiting action, ED 50/ED 0.75
Procedure: as §1, with “After” for “To determine anti-cholinergic side-effects (mydriasis, inhibition of salivation), groups of from 5 to 10 female Sprague-Dawley rats (160-200 g) are given the test substance subcutaneously. After”, “analysis.” for “analysis. The ED 50 is taken to be the dose at which the relative frequency of inhibition of salivation is 50%.”

ulcerous lesions = test: Anti-ulcerogenic effect in the rat (reserpine/indomethacin/cold induced ulcers); type: in vivo, Sprague-Dawley rats; details: for ED50: po, 6 h, administered orally, dose which reduces the ulcerated surface area by 50%, read-out: Anti-ulcerogenic effect, ED 50%; for Anti-ulcerogenic effect, R.E. (relative effectiveness): orally, relative to pirenzepine = 1.0
Procedure: To examine the anti-ulcerogenic effect, groups of 10 female Sprague-Dawley rats (weighing 160-180 g) are given 1 mg/kg of reserpine intraperitoneally, and are then left for 18 hours without food (but with water ad libitum). After this time, the animals are given 21.5 mg/kg of indomethacin intraperitoneally and the test substance orally; they are then kept for 6 hours at 8° C., after which they are killed. The stomachs are removed and the surface area of ulcerous lesions is determined.

gastric acid secretion = details: for ED (pH increase of 0.75): Rattus norvegicus, sc, 1 h, read-out: Inhibition of gastric acid secretion, ED 0.75; for Inhibition of gastric acid secretion, R.E. (relative effectiveness): rat, subcutaneously, relative to pirenzepine = 1.0
Procedure: The inhibition of gastric acid secretion manifests itself in a rise in the pH of the gastric mucosa. It is tested on groups of 5 conscious female Sprague-Dawley rats (160-180 g). The animals are kept without food (but with water ad libitum) for 48 hours and are then pretreated with varying doses of the test substances, administered subcutaneously. After 1 hour, they are narcotized with Na hexobarbital (46.4 mg/kg, given intravenously). A pH electrode (Philips Special Electrode, type CJP) is then introduced into the stomach and the pH at the surface of the gastric mucosa is measured (pH in the untreated animals is 1.40±0.02; N=200). The ED 0.75, ie. the dose which causes an increase in pH averaging 0.75, compared to the pH in the untreated control animals, is determined from the linear regression between logarithm of administered dose and increase in pH.

[2] = Anti-cholinergic side-effect: mydriasis (pupil diameter) in the rat; type: in vivo, Sprague-Dawley rats; details: in vivo, sc, subcutaneously, ratio of mydriatic to secretion-inhibiting dose, read-out: Mydriatic action, ED 2 mm / ED 0.75
Procedure: as §1, §2

SMILES | Mydriatic action, ED 2 mm (pupil diameter) [mg/kg] | ED50 at 1 h [1] [mg/kg] | ED50 (ulcerous lesions) [mg/kg] | ED (pH increase of 0.75) (gastric acid secretion) [mg/kg] | selectivity ratio [2] | selectivity ratio [1] | Anti-ulcerogenic effect, R.E. (relative effectiveness) (ulcerous lesions) | Inhibition of gastric acid secretion, R.E. (relative effectiveness) (gastric acid secretion)
CN1CCN(CC(=O)N2c3ccccc3C(=O)Nc3cccnc32)CC1 [Pirenzepine, 5,11-dihydro-11-[(4-methyl-piperazin-1-yl)-acethyl]-6H-pyrido-[2,3,b][1,4]-benzodiazepin-6-one, reference compound] | 1.6 | 2 | 6.5 | 0.086 |  |  |  | 
CN1CCN(C(=O)C=C2c3ccccc3NC(=O)c3ccccc32)CC1 (mixture of isomers) [Example 1 cis/trans, cis,trans-11-(4-methyl-piperazin-1-yl)-carboxamidomethylene-5,6-dihydromorphanthridin-6-one] | > 215 | 99 | 2.1 | 0.055 | > 3900 | 1800 | 3.1 | > 1.6
CN1CCN(C(=O)/C=C2/c3ccccc3NC(=O)c3ccccc32)CC1 [Example 1 cis, cis-11-(4-methyl-piperazin-1-yl)-carboxamidomethylene-5,6-dihydro-morphanthridin-6-one] | 198 | 50 | 1.7 | 0.032 | 6200 | 1600 | 3.8 | 2.7
